Measured values taken from patent US11154470B1, “Anti-inflammatory and senolytic dental care product with tooth whitening characteristics” (Credentis AG, priority 2020, dated 2021).

Assay: Tooth whitening: colour change of tooth enamel measured with a dental spectrophotometer (L*a*b, ISO 28399)
Settings: peptide alone 7.5 mg/mL, without excipients; 24 h after application; 10 teeth, three measurements per tooth
Experimental: Suspensions of oligopeptide 104 (5 mg/ml) with or without hydroxyapatite particles (average size d50≤300 nm (Horiba); 40-60% crystallinity, 25 wt %) were generated.
The suspensions were directly applied onto an enamel surface of a tooth, and residues washed off (10 sec). The specimen was stored in distilled water for 24 hours at 37° C. The procedure was repeated 3 times.
The tooth colour was measured with a dental spectrophotometer (VITA Easyshade). The illumination conditions were standardized with a black box as the background for the teeth during the measurement. The tip was applied perpendicular to the tooth surface and the average L*a*b-values from three repetitions were used for evaluations. Colour measurement were done at baseline ([…]), 24 hours after first application (t1), 24 hours after second application (t3), 24 hours after the third application (t4).
The mean changes of the L*a*b-values between different measurements in each group were expressed as […]E (according to ISO 28399).
Oligopeptide 104 was used in a concentration of 7.5 mg/mL, i.e., the concentration was higher than the concentration of peptide used in the application alone. ΔE was determined 24 h after application, with three measurements per tooth and 10 teeth examined. ΔE was 0.62. […]

QQRFEWEFEQQ (P11-4 / oligopeptide 104)
ΔE: 0.62
